The text below walks through data of patent publication US4176185A, “Spiro-quinolylhydantoins” (Pfizer Inc., priority 1979, dated 1979).

One experiment deals with aldose reductase. As to the kind of experiment: inhibition of aldose reductase enzyme activity. The experiment is classed as biochemical. Particulars: partially purified aldose reductase from calf lens. The text has this: (§1) The activity of the compounds of the present invention as agents for the control of chronic diabetic complications may be determined by a number of standard biological or pharmacological tests. Suitable tests include (1) measuring their ability to inhibit the enzyme activity of isolated aldose reductase; (2) measuring their ability to reduce or inhibit sorbitol accumulation in the sciatic nerve of acutely streptozotocinized (i.e. diabetic) rats; (3) measuring their ability to reverse already-elevated sorbitol levels in the sciatic nerve and lens of chronic streptozotocin-induced diabetic rats; (4) measuring their ability to prevent or inhibit galactitol formation in the lens of acutely galactosemic rats; and (5) measuring their ability to delay cataract formation and reduce the severity of lens opacities in chronic galactosemic rats.
The compounds of Examples 3 and 6 were tested for their ability to reduce or inhibit aldose reductase enzyme activity, following the procedure described in U.S. Pat. No. 3,821,383 and based on the procedure of Hayman et. al., Journal of Biological Chemistry, 240, 877 (1965). The substrate employed was partially purified aldose reductase enzyme obtained from calf lens. The results obtained with each compound at a concentration of 10^-4 M are expressed as percent inhibition of enzyme activity.

Experiment [1] concerns sorbitol accumulation in the sciatic nerve. In words: inhibition of sorbitol accumulation in the sciatic nerve of streptozotocinized (diabetic) rats. It is filed as in vivo, rat. Particulars: measured 27 h after induction of diabetes, vs untreated.
Excerpt: as §1
The compounds of Examples 3 and 6 were tested for their ability to reduce or inhibit sorbitol accumulation in the sciatic nerve of streptozotocinized (i.e. diabetic) rats by the procedure essentially described in U.S. Pat. No. 3,821,383. In the present study, the amount of sorbitol accumulation in the sciatic nerves was measured 27 hours after induction of diabetes. The compounds were administered orally at the dose levels indicated at 4, 8 and 24 hours following the administration of streptozotocin. […]

Molecules are shown by their SMILES.

On to `O=C1NC(=O)C2(CCOc3c2ccc2ncccc32)N1` (stereo not shown) [Example 6], for which the “% Inhibition at 10^-4 M (aldose reductase enzyme activity)” value in the experiment on aldose reductase turned out to be 94%. For the same compound, in experiment [1] (10 mg/kg oral at 4, 8 and 24 h after streptozotocin), the “% Inhibition (sorbitol accumulation in sciatic nerve)” value came out at 92%.

For the compound `O=C1NC(=O)C2(CCOc3c2ccc2cccnc32)N1` (stereo not shown) [Example 3], the “% Inhibition at 10^-4 M (aldose reductase enzyme activity)” value in the experiment with aldose reductase was determined as 75%. Moreover, the “% Inhibition (sorbitol accumulation in sciatic nerve)” value in experiment [1] (1.5 mg/kg oral at 4, 8 and 24 h after streptozotocin) was 27%.

The term % Inhibition denotes the percentage by which the read-out fell short of the control.
